Data taken from patent US11384078B2, “5,6-fused-bicyclic compounds and compositions for the treatment of parasitic diseases” (NOVARTIS AG, priority 2017, dated 2022).
Read-outs that look alike come from different tables or passages of the source.

Tests used:
Format in all cases: cell-based
[1] = system: Leishmania donovani axenic amastigote; assay: In vitro assay for growth inhibition of Leishmania donovani axenic amastigote (Cell TiterGlo luminescence); details: Leishmania donovani, L. donovani axenic amastigotes in vitro; read-out: L. donovani amastigotes EC50
Method in brief: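 Axenic L. donovani amastigotes (9600/well) grown at 37 °C, 5% CO2 in supplemented RPMI 1640, pH 5.5, with compound added from DMSO. After two days, viability read by CellTiter-Glo luminescence against DMSO and control-compound wells.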

[2] = system: Trypanosoma brucei brucei (Lister 427) strain; assay: Assay for growth inhibition against Trypanosoma brucei brucei (Cell TiterGlo ATP luminescence); details: T. brucei brucei (Lister 427), read-out: T. Brucei (HAT) EC50
Method in brief: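 T. b. brucei Lister 427 grown in HMI-9 with 10% FBS and 10% serum plus, seeded at 10,000 parasites/mL with 10-point threefold compound dilutions in duplicate, 37 °C for 2 days. Viability read as ATP luminescence 30 min after Cell TiterGlo; IC50 versus untreated controls.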

[3] = system: L. donovani HU3 strain in mouse peritoneal macrophages; assay: Assay for inhibition of parasitemia of Leishmania donovani in mouse macrophages (SYBR Green nuclei count, high-content imaging); details: L. donovani in mouse peritoneal macrophages, read-out: L. donovani in Mouse Macrophages EC50
Method in brief: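 Peritoneal macrophages from uninfected BALB/c mice were infected for 24 h with spleen-derived L. donovani HU3 (4×10^5 parasites per 2×10^4 macrophages), then cultured with compound for 5 days at 37° C, 5% CO2. After fixation and permeabilization, parasite nuclei were stained with SYBR Green and counted by high-content imaging.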

[4] = system: Trypanosoma cruzi amastigotes cultured in 3T3 fibroblast cells; assay: Assay for growth inhibition of kinetoplastid parasite Trypanosoma cruzi (beta-galactosidase Tulahuen strain, CPRG readout); details: Trypanosoma cruzi, Fibroblast, T. cruzi amastigotes in 3T3 fibroblast cells; read-out: Buckner infectious T. cruzi EC50
Method in brief: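 3T3 fibroblasts (1,000 cells/well) plated overnight, treated with compound in DMSO, then infected with 10,000 Lac-Z-expressing Tulahuen trypomastigotes. After 6 days, 0.6 mM CPRG with 0.6% NP-40 added for 2 h at room temperature; absorbance gives relative intracellular amastigote numbers. Benznidazole and nifurtimox serve as positive controls.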

[5] = Leishmania donovani, Peritoneal macrophage

SMILES	EC50 [1]	EC50 ([2]; Trypanosoma brucei)	EC50 [3, 5]	EC50 [4]	EC50 [2]	EC50 [3]
O=C(Nc1ccc(F)c(-n2cc3cc(NC4CC4)cnc3n2)c1)N1CC(F)C1 [Compound 249, N-{3-[5-(cyclopropylamino)-2H-pyrazolo[3,4-b]pyridin-2-yl]-4-fluorophenyl}-3-fluoroazetidine-1-carboxamide]	864 nM	5 nM	125 nM	110 nM		
O=C(Nc1ccc(F)c(-n2cc3cc(N4CCCC4)cnc3n2)c1)N1CCC1 [Compound 163, N-{4-fluoro-3-[5-(pyrrolidin-1-yl)-2H-pyrazolo[3,4-b]pyridin-2-yl]phenyl}azetidine-1-carboxamide]	5.8 nM	< 23 nM	4.1 nM	2.7 nM		
Cc1nc(COC(C)(C)C)oc1C(=O)Nc1ccc(F)c(-n2cc3cc(C(C)C)cnc3n2)c1 [Compound 79, 2-[(tert-butoxy)methyl]-N-{4-fluoro-3-[5-(propan-2-yl)-2H-pyrazolo[3,4-b]pyridin-2-yl]phenyl}-4-methyl-1,3-oxazole-5-carboxamide]	3000 nM	350 nM	2400 nM	140 nM		
O=C(Nc1ccc(F)c(-n2cc3cc(-c4ccccn4)cnc3n2)c1)N1CC(F)C1 [Compound 28, 3-fluoro-N-{4-fluoro-3-[5-(pyridin-2-yl)-2H-pyrazolo[3,4-b]pyridin-2-yl]phenyl}azetidine-1-carboxamide]	1.3 nM	< 23 nM	2 nM	1 nM		
CC(C)Cc1cnc2nn(-c3cc(NC(=O)N4CCC4)ccc3F)cc2c1 [Compound 7, N-(4-fluoro-3-(5-isobutyl-2H-pyrazolo[3,4-b]pyridin-2-yl)phenyl)azetidine-1-carboxamide]	7.7 nM	< 23 nM	4 nM	1.6 nM		
CC(C)c1cnc2nn(-c3cc(NC(=O)C4CCC(C(F)(F)F)C4)ccc3F)cc2c1 (centres unmarked) [Compound 71, N-{4-fluoro-3-[5-(propan-2-yl)-2H-pyrazolo[3,4-b]pyridin-2-yl]phenyl}-3-(trifluoromethyl)cyclopentane-1-carboxamide]	4800 nM	3000 nM	2800 nM	1400 nM		
O=C(Nc1ccc(F)c(-n2cc3cc(N4CC5(CC5)C4)cnc3n2)c1)N1CC(F)C1 [Compound 233, N-[3-(5-{5-azaspiro[2.3]hexan-5-yl}-2H-pyrazolo[3,4-b]pyridin-2-yl)-4-fluorophenyl]-3-fluoroazetidine-1-carboxamide]	13 nM		10 nM	5 nM	4 nM	
CC(C)Nc1cnc2nn(-c3cc(NC(=O)N4CC(F)C4)ccc3F)cc2c1 [Compound 200, 3-fluoro-N-(4-fluoro-3-{5-[(propan-2-yl)amino]-2H-pyrazolo[3,4-b]pyridin-2-yl}phenyl)azetidine-1-carboxamide]	974 nM	5 nM	7 nM	15 nM		
CCC(C)c1cnc2nn(-c3cc(NC(=O)N4CC[C@@H](F)C4)ccc3F)cc2c1 (stereo partly drawn) [Compound 50, (3R)-N-{3-[5-(butan-2-yl)-2H-pyrazolo[3,4-b]pyridin-2-yl]-4-fluorophenyl}-3-fluoropyrrolidine-1-carboxamide]	78 nM	< 23 nM	100 nM	79 nM		
O=C(Nc1ccc(F)c(-n2cc3cc(N4CC5(COC5)C4)cnc3n2)c1)N1CC(F)C1 [Compound 171, 3-fluoro-N-[4-fluoro-3-(5-{2-oxa-6-azaspiro[3.3]heptan-6-yl}-2H-pyrazolo[3,4-b]pyridin-2-yl)phenyl}azetidine-1-carboxamide]	9.5 nM	< 23 nM	16 nM	47 nM		
O=C(Nc1ccc(F)c(-n2cc3cc(-c4ncccc4Cl)cnc3n2)c1)N1CC(F)(F)C1 [Compound 310, N-{3-[5-(3-chloropyridin-2-yl)-2H-pyrazolo[3,4-b]pyridin-2-yl]-4-fluorophenyl}-3,3-difluoroazetidine-1-carboxamide]	2 nM	5 nM	2 nM	1 nM		
[2H]C([2H])([2H])N(c1cnc2nn(-c3cc(NC(=O)N4CC[C@@H](F)C4)ccc3F)cc2c1)C([2H])([2H])[2H] [Compound 308, (3R)-N-(3-{5-[bis(^2H3)methylamino]-2H-pyrazolo[3,4-b]pyridin-2-yl}-4-fluorophenyl)-3-fluoropyrrolidine-1-carboxamide]	568 nM	5 nM	2 nM	4 nM		
N#Cc1ccc(C(=O)Nc2ccc(F)c(-n3cc4cc(-c5ccccn5)cnc4n3)c2)o1 [Compound 206, 5-cyano-N-{4-fluoro-3-[5-(pyridin-2-yl)-2H-pyrazolo[3,4-b]pyridin-2-yl]phenyl}furan-2-carboxamide]	2 nM	5 nM	13 nM	1 nM		
CC(C)c1cnc2nn(-c3cc(NC(=O)c4ccco4)ccc3F)cc2c1 [Compound 196, N-{4-fluoro-3-[5-(propan-2-yl)-2H-pyrazolo[3,4-b]pyridin-2-yl]phenyl}furan-2-carboxamide]	76 nM	< 23 nM	27000 nM	12 nM		
CN(C)c1cnc2nn(-c3cc(NC(=O)N4CC(F)C4)ccc3F)cc2c1 [Compound 167, N-{3-[5-(dimethylamino)-2H-pyrazolo[3,4-b]pyridin-2-yl]-4-fluorophenyl}-3-fluoroazetidine-1-carboxamide]	2.9 nM	< 23 nM	8.2 nM	2.2 nM		
Cc1nc(C)c(C(=O)Nc2ccc(F)c(-n3cc4cc(C(C)C)cnc4n3)c2)o1 [Compound 351, N-(4-fluoro-3-(5-isopropyl-2H-pyrazolo[3,4-b]pyridin-2-yl)phenyl)-2,4-dimethyloxazole-5-carboxamide]	49 nM	31 nM	24 nM	15 nM		
Cc1nc(C2CC2)oc1C(=O)Nc1ccc(F)c(-n2cc3cc(C(C)C)cnc3n2)c1 [Compound 76, 2-cyclopropyl-N-{4-fluoro-3-[5-(propan-2-yl)-2H-pyrazolo[3,4-b]pyridin-2-yl]phenyl}-4-methyl-1,3-oxazole-5-carboxamide]	1100 nM	480 nM	930 nM	410 nM		
O=C(Nc1ccc(F)c(-n2cc3cc(-c4ccccn4)cnc3n2)c1)[C@H]1C[C@@H]1F (single isomer, unassigned) [Compound 269, (1 S,2R)-2-fluoro-N-(4-fluoro-3-(5-(pyridin-2-yl)-2H-pyrazolo[3,4-b]pyridin-2-yl)phenyl)cyclopropane-1-carboxamide or (1R,2S)-2-fluoro-N-(4-fluoro-3-(5-(pyridin-2-yl)-2H-pyrazolo[3,4-b]pyridin-2-yl)phenyl)cyclopropane-1-carboxamide]	19 nM			9 nM	20 nM	32 nM
O=C(Nc1ccc(F)c(-n2cc3cc(N4CC5(CC5)C4)cnc3n2)c1)N1CC[C@@H](F)C1 [Compound 259, (3R)-N-[3-(5-{5-azaspiro[2.3]hexan-5-yl}-2H-pyrazolo[3,4-b]pyridin-2-yl)-4-fluorophenyl}-3-fluoropyrrolidine-1-carboxamide]	12 nM	4 nM	16 nM	3 nM		
O=C(Nc1ccc(F)c(-n2cc3cc(N4CC(F)(F)C4)cnc3n2)c1)[C@@H]1C[C@H]1F (single isomer, unassigned) [Compound 268, (1 S,2R)—N-(3-(5-(3,3-difluoroazetidin-1-yl)-2H-pyrazolo[3,4-b]pyridin-2-yl)-4-fluorophenyl)-2-fluorocyclopropane-1-carboxamide or (1R,2S)—N-(3-(5-(3,3-difluoroazetidin-1-yl)-2H-pyrazolo[3,4-b]pyridin-2-yl)-4-fluorophenyl)-2-fluorocyclopropane-1-carboxamide]	84 nM			82 nM	116 nM	273 nM
O=C(Nc1ccc(F)c(-n2cc3cc(-c4ccccn4)cnc3n2)c1)N1CCCC1 [Compound 336, N-{4-fluoro-3-[5-(pyridin-2-yl)-2H-pyrazolo[3,4-b]pyridin-2-yl]phenyl}pyrrolidine-1-carboxamide]	2 nM	1 nM	4 nM	1 nM		
CC(C)c1cnc2nn(-c3cc(NC(=O)C4CCCCO4)ccc3F)cc2c1 (centres unmarked) [Compound 80, N-{4-fluoro-3-[5-(propan-2-yl)-2H-pyrazolo[3,4-b]pyridin-2-yl]phenyl}oxane-2-carboxamide]	410 nM	170 nM	410 nM	92 nM		
CCCC(C)c1cnc2nn(-c3cc(NC(=O)N4CC(F)(F)C4)ccc3F)cc2c1 (centres unmarked) [Compound 34, 3,3-difluoro-N-{4-fluoro-3-[5-(pentan-2-yl)-2H-pyrazolo[3,4-b]pyridin-2-yl]phenyl}azetidine-1-carboxamide]	200 nM	150 nM	270 nM	160 nM		
